What all share (type): in vivo
Assay [1] can be described thus: Liver lipids in Swiss mice fed with a western diet. The settings on record: 100 mg/kg/day, western diet 6 weeks, fasted 48 h. How it is done: Total lipids and triglycerides in the liver of animals were assessed according to a procedure partially reported by (Letteron P., Fromenty B., Terris B., Degott C., Pessayre D., 1996, J. Hepatol. 24 : 200-208). Briefly, after killing of the animals, livers were removed and homogenized in sterile water. Hepatic lipids were thus extracted by a mixture of chloroform and methanol (2/1; v/v). After removal of the aqueous phase, the organic phase (chloroform containing the lipids) was evaporated and the amount of lipids was determined by gravimetry. Lipids were subsequently resuspended in isopropanol (final concentration, ca. 10 mg/mL). After removal of the phopholipids by using aluminum hydroxide hydrate, triglycerides were determined colorimetrically by using periodate and the Nash's reagent (containing acetylacetone, ammonium acetate and isopropanol). The reaction generates diacetyldihydrolutidine which is assayed by spectrophotometry (λ=410 nm).
Liver lipids were assessed in mice fed with the western diet (WD) receiving or not of 100 mg/kg/day of β-aminoisobutyric acid (BAIBA) in the drinking water (8 mice in each group). For comparison, the experiment also included a group of mice (n=8) fed with a standard diet (SD). These animals were those used for the determination of body fat by DEXA (see above, paragraph I-c) but after the last DEXA measurement (i.e. after 6 weeks of treatment), mice were allowed to recover from the anaesthesia for ca. 2 days and were then submitted to a 48-hour period of fast. At the end of this fasting period DEXA was again performed (see above) and then mice were killed for liver lipids determination. The western diet was responsible for an increase in liver lipids as compared to mice fed with the standard diet.

The nature of assay [2]: Plasma lipids in lean mice fed with a standard diet, 6 weeks, not fasted. The settings on record: 100 mg/kg/day 6 weeks. How it is done: (§1) Plasma lipids (triglycerides, total cholesterol, phospholipids) were measured on an automatic analyser (Hitachi 717®). The commercial kits used to assess triglycerides, total cholesterol and phospholipids on this analyser were all from bioMérieux (references 61238, 61219 and 61491, respectively). Plasma non esterified fatty acids (NEFA) were assessed by using a commercial kit (Wako, reference 994-75409). Hepatic and plasma lipids were performed at the end of six weeks of treatment in animals that have been fasted for 48 hours. Triglycerides and HDL-cholesterol were also assessed after 2 months (in the fed state) or after 4 months of treatment (after an overnight fast).
Plasma lipids were assessed in lean mice fed with a standard diet and receiving or not of 100 mg/kg/day of β-aminoisobutyric acid (BAIBA) in the drinking water during 6 weeks. There were six animals per group. At the end of the 6 weeks of treatment, mice were not fasted and samples of blood were then collected for the assessment of plasma triglycerides and total cholesterol. […] Indeed, plasma triglycerides were 3.18±0.23 and 2.95±0.21 mmol/L, respectively in control and treated mice whereas plasma total cholesterol was 5.35±0.35 and 5.23±0.28 mmol/L, respectively in control and treated mice.

The nature of assay [3]: Plasma lipids in ob/ob mice, 6 weeks, 48-hour fast. The method, then: as §1
Plasma lipids were assessed in ob/ob mice fed with a standard diet and receiving or not β-aminoisobutyric acid (BAIBA) in the drinking water during 6 weeks. These animals (7 controls and 10 treated with BAIBA) were those used for the determination of hepatic lipids (see above, paragraph II-b). At the end of the 6 weeks of treatment, mice were submitted to a 48-hour period of fast. Samples of blood were then collected (from the retroorbital sinus) for the assessment of plasma triglycerides, phospholipids and total cholesterol and mice were subsequently killed for assessment of liver triglycerides (see above). In this experiment, BAIBA decreased by 5, 23 and 19%, respectively plasma triglycerides, phospholipids and total cholesterol. The results are submitted in FIG. 7.

Each structure is given as a SMILES string.

As to `CC(CN)C(=O)O` (racemic) [BAIBA, D,L-β-Aminoisobutyric acid], in assay [1], the hepatic triglycerides was determined as 33±6 mg/whole liver and the liver lipids came out at 108±7 mg/whole liver. Besides, in assay [1] (vs Controls-WD), the “decrease of liver total lipids” value is given as 24% and the “decrease of liver triglycerides” value is 17%. Further, in assay [2], the plasma total cholesterol came to 5.23 ± 0.28 mmol/L and the plasma triglycerides is 2.95 ± 0.21 mmol/L. Besides, in assay [3], the “decrease of plasma phospholipids” value was found to be 23%, the “decrease of plasma total cholesterol” value came out at 19%, the “decrease of plasma triglycerides” value is given as 5% and the plasma triglycerides worked out at 1.32 ± 0.14 mmol/L. In addition, the plasma phospholipids in assay [3] (p<0.01) came out at 4.07 ± 0.26 mmol/L. In assay [3] (p<0.05), this molecule had a plasma total cholesterol of 4.98 ± 0.34 mmol/L.

The record behind these values is patent US20060167098A1, “Method for the treatment of diseases linked to an accumulation of triglycerides and cholesterol” (Institut National De La Sante ET De LA Recherche Medicale …, priority 2003, published 2006).
